US8389571B2, “Benzofuran derived HIV protease inhibitors” (Sequoia Pharmaceuticals, Inc., priority 2007, dated 2013)

Key:
HIV-1 WT = test: Antiviral activity, in vitro drug sensitivity of HIV-1 isolates, WT; type: cell-based; settings: Human immunodeficiency virus 1
Experimental: (§1) In Vitro Drug Sensitivity of HIV-1 Laboratory Isolates to PIs
(§2) The sensitivities of HIV-1 isolates against compounds of the invention were determined as previously described with minor modifications (Shiraska et al., Proc. Natl. Acad. Sci. USA, 92, 2398-2402 (1995)).

[1] = In vivo bioavailability, rat; settings: 20 mg/kg p.o.
HIV protease (wt) = biological target: T1, HIV protease (wt) (Human immunodeficiency virus type 1 group M subtype B, UniProt P04585); test: HIV protease inhibitory activity, wild type; type: biochemical
T1 construct: over 45 of the 99 amino acids of the HIV protease monomer

HIV-1 Mutant 8 = test: Antiviral activity, in vitro drug sensitivity of HIV-1 isolates, Mutant 8; type: cell-based; settings: Human immunodeficiency virus 1, read-out: Antiviral activity IC50 Mutant 8
Experimental: as §1, §2

HIV protease Mutant 8 = HIV protease Mutant 8 (Human immunodeficiency virus type 1, UniProt P04585); test: HIV protease inhibitory activity, Mutant 8; type: biochemical; settings: Mutant 8 protease
HIV-1 Mutant 9 = test: Antiviral activity, in vitro drug sensitivity of HIV-1 isolates, Mutant 9; type: cell-based; settings: Human immunodeficiency virus 1, read-out: Antiviral activity IC50 Mutant 9
Experimental: as §1, §2

HIV protease Mutant 9 = HIV protease Mutant 9 (Human immunodeficiency virus type 1, UniProt P04585); test: HIV protease inhibitory activity, Mutant 9; type: biochemical; settings: Mutant 9 protease
[2] = rat, oral administration; Miller et al., Bioorg Med Chem Lett. 1788-94 (2006); cited from earlier work

| SMILES | IC50 (HIV-1 WT) [nM] | AUC (0-12) [1] [ugxh/mL] | Cmax ([1]; in vivo, po) [µM] | Tmax ([1]; in vivo, po) [min] | bioavailability ([1]; in vivo, po) [%] | Ki (HIV protease (wt)) [nM] | IC50 (HIV-1 Mutant 8) [nM] | Ki (HIV protease Mutant 8) [nM] | IC50 (HIV-1 Mutant 9) [nM] | Ki (HIV protease Mutant 9) [nM] | % F [2] [%] |
| --- | --- | --- | --- | --- | --- | --- | --- | --- | --- | --- | --- |
| Cc1nc(COc2ccc(C[C@H](NC(=O)O[C@H]3CO[C@H]4OCC[C@H]43)[C@H](O)CN(CC(C)C)S(=O)(=O)c3ccc4occc4c3)cc2)cs1 [Compound D] | 1.4 | 11 | 3.51 | 39.6 | 92 | < 0.05 | 4.2 | < 0.05 | 32 | 0.055 | – |
| Cc1nc(COc2ccc(C[C@H](NC(=O)O[C@H]3CO[C@H]4OCC[C@H]43)[C@H](O)CN(CC(C)C)S(=O)(=O)c3ccc4c(c3)OCO4)cc2)cs1 [GW0385, reference compound] | 0.8 | – | – | – | – | 0.1 | 3.2 | < 0.05 | 42 | 0.13 | 10 |
